Experimental data published in patent publication US12371454B2, “Cyclic peptide compound having Kras inhibitory action” (priority 2019, dated 2025).
pIC50: −log10 of the molar value. Positions of bridges follow the written chain, without caps; N, C: chain ends. Non-standard residues stand in square brackets, D forms with d. Residues, ends and D or L forms follow the SMILES beside them. *: point of attachment. hPhe(3-Cl-4-CF3) = N[C@@H](CCc1ccc(C(F)(F)F)c(Cl)c1)C(=O)O; hPhe(3-F,4-CF3) = N[C@@H](CCc1ccc(C(F)(F)F)c(F)c1)C(=O)O; NMePhe(4-CF3) = CN[C@@H](Cc1ccc(C(F)(F)F)cc1)C(=O)O; 3Oxa8azabicyclo(3.2.1)octane = C1CC2COCC1N2*; NMePhe(4-Me) = CN[C@@H](Cc1ccc(C)cc1)C(=O)O; hPhe(4-Cl) = N[C@@H](CCc1ccc(Cl)cc1)C(=O)O; NMeAla(cPent) = CN[C@@H](CC1CCCC1)C(=O)O; NMeGly(cPent) = CN[C@H](C(=O)O)C1CCCC1; NMeCha = CN[C@@H](CC1CCCCC1)C(=O)O; NMeChg = CN[C@H](C(=O)O)C1CCCCC1; NMeI = CC[C@H](C)[C@H](NC)C(=O)O; N(CH2CH2)2CF2 = FC1(F)CCN(*)CC1; NMeD = CN[C@@H](CC(=O)O)C(=O)O; NMeL = CN[C@@H](CC(C)C)C(=O)O; NMeNva = CCC[C@H](NC)C(=O)O; NMeAbu = CC[C@H](NC)C(=O)O; NMeS = CN[C@@H](CO)C(=O)O; Morpholide = C1CN(*)CCO1; NMeA = CN[C@@H](C)C(=O)O; Pyrrolidide = C1CCN(*)C1; Ac5c = NC1(C(=O)O)CCCC1; Aze = O=C(O)[C@@H]1CCN1; Sar = CNCC(=O)O; Propyl = CCC*

Assays:
[1] = system: Human pancreatic cancer cell line AsPC-1; experiment: Measurement of AsPC-1 cell growth inhibition (AsPC-1 CGI); assay type: cell-based; conditions: 96 h
In short: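 AsPC-1 cells in 15% FBS RPMI-1640 were exposed to test compound for 96 hours at 37° C, with CellTiter-Glo as endpoint.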

[2] = molecular target: T1, Kras and SOS1 (biotin-tagged human Kras loaded with GDP, His-tagged human SOS1) (Homo sapiens, UniProt P01116, G12D); experiment: Protein-protein interaction inhibition between Kras and SOS1 (KrasGl2D-SOS PPI) using AlphaScreen; assay type: binding; conditions: AlphaScreen; biotin-tagged human Kras loaded with GDP, His-tagged human SOS1; read-out: KRAS G12D-SOS PPI IC50
T1 construct: made in house; host or cells: E. coli (stated for Kras only)
T1 sequence (P01116 1-188 isoform P01116-2 G12D): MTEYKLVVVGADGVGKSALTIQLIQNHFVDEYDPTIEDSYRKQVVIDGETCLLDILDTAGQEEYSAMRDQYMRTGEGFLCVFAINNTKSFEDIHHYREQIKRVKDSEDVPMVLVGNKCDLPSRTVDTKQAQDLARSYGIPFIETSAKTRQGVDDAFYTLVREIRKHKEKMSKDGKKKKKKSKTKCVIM
In short: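 Donor beads (nickel) hold His-SOS1; acceptor beads (streptavidin) hold biotin-Kras bound to GDP. Signal measured at 520-620 nm following 680 nm excitation.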

CC[C@H](C)[C@@H]1NC(=O)[C@H](CC(C)C)N(C)C(=O)C[C@@H](C(=O)N(C)C)N(C)C(=O)[C@H](C2CCCC2)N(C)C(=O)C2(CCCC2)NC(=O)[C@H](CC(=O)N2CCC(F)(F)CC2)N(C)C(=O)[C@H](CCc2ccc(C(F)(F)F)c(Cl)c2)NC(=O)CN(C)C(=O)[C@H](CC2CCCCC2)N(C)C(=O)[C@@H]2CCN2C(=O)[C@H](C)N(C)C1=O [Compound 1955] ([NMeL]I[NMeA][Aze][NMeCha][Sar][hPhe(3-Cl-4-CF3)][NMeD](N(CH2CH2)2CF2)[Ac5c][NMeGly(cPent)][NMeD]-NMe2; lactam N-11)
pIC50 [1]: 6.30 to 7.00 | pIC50 [2]: 8.82

CCCOC[C@H]1C(=O)N(C)CC(=O)N[C@@H](CCc2ccc(C(F)(F)F)c(Cl)c2)C(=O)N2CCC[C@H]2C(=O)NC2(CCCC2)C(=O)N(C)[C@@H](C2CCCCC2)C(=O)N(C)[C@H](C(=O)N2C3CCC2COC3)CC(=O)N(C)[C@@H](CC)C(=O)N[C@@H]([C@@H](C)CC)C(=O)N(C)CC(=O)N(C)CC(=O)N1C [Compound 1956] ([NMeAbu]I[Sar][Sar][NMeS](Propyl)[Sar][hPhe(3-Cl-4-CF3)]P[Ac5c][NMeChg][NMeD]-{3Oxa8azabicyclo(3.2.1)octane}; lactam N-11)
pIC50 [1]: 6.30 to 7.00 | pIC50 [2]: 9.12

CC[C@H](C)[C@@H]1NC(=O)[C@H](CC(C)C)N(C)C(=O)C[C@@H](C(=O)N2C3CCC2COC3)N(C)C(=O)[C@H](C2CCCCC2)N(C)C(=O)C2(CCCC2)NC(=O)[C@@H]2CCCN2C(=O)[C@H](CCc2ccc(C(F)(F)F)c(F)c2)NC(=O)CN(C)C(=O)[C@H](CC2CCCCC2)N(C)C(=O)CN(C)C(=O)CN(C)C1=O [Compound 1957] ([NMeL]I[Sar][Sar][NMeCha][Sar][hPhe(3-F,4-CF3)]P[Ac5c][NMeChg][NMeD]-{3Oxa8azabicyclo(3.2.1)octane}; lactam N-11)
pIC50 [1]: 6.30 to 7.00 | pIC50 [2]: 8.92

CC[C@H](C)[C@@H]1NC(=O)[C@H](CC)N(C)C(=O)C[C@@H](C(=O)N2CCCC2)N(C)C(=O)[C@H](C2CCCCC2)N(C)C(=O)C2(CCCC2)NC(=O)[C@@H]2CCCN2C(=O)[C@H](CCc2ccc(C(F)(F)F)c(Cl)c2)NC(=O)CN(C)C(=O)[C@H](CC2CCCCC2)N(C)C(=O)CN(C)C(=O)CN(C)C1=O [Compound 1958] ([NMeAbu]I[Sar][Sar][NMeCha][Sar][hPhe(3-Cl-4-CF3)]P[Ac5c][NMeChg][NMeD]-Pyrrolidide; lactam N-11)
pIC50 [1]: 7.30 to 7.70 | pIC50 [2]: 9.35

CC[C@H](C)[C@@H]1NC(=O)[C@H](CC)N(C)C(=O)C[C@@H](C(=O)N2C3CCC2COC3)N(C)C(=O)[C@H](C2CCCCC2)N(C)C(=O)C2(CCCC2)NC(=O)[C@@H]2CCCN2C(=O)[C@H](CCc2ccc(C(F)(F)F)c(Cl)c2)NC(=O)CN(C)C(=O)[C@H](Cc2ccc(C)cc2)N(C)C(=O)CN(C)C(=O)CN(C)C1=O [Compound 1963] ([NMeAbu]I[Sar][Sar][NMePhe(4-Me)][Sar][hPhe(3-Cl-4-CF3)]P[Ac5c][NMeChg][NMeD]-{3Oxa8azabicyclo(3.2.1)octane}; lactam N-11)
pIC50 [1]: 7.00 to 7.30 | pIC50 [2]: 9.20

CC[C@H](C)[C@@H]1NC(=O)[C@H](CC(C)C)N(C)C(=O)C[C@@H](C(=O)N2CCOCC2)N(C)C(=O)[C@H](C2CCCCC2)N(C)C(=O)C2(CCCC2)NC(=O)[C@@H]2CCCN2C(=O)[C@H](CCc2ccc(C(F)(F)F)c(F)c2)NC(=O)CN(C)C(=O)[C@H](CC2CCCCC2)N(C)C(=O)CN(C)C(=O)CN(C)C1=O [Compound 1965] ([NMeL]I[Sar][Sar][NMeCha][Sar][hPhe(3-F,4-CF3)]P[Ac5c][NMeChg][NMeD]-Morpholide; lactam N-11)
pIC50 [1]: 7.00 to 7.30 | pIC50 [2]: 9.26

CC[C@H](C)[C@@H]1NC(=O)[C@H](CC(C)C)N(C)C(=O)C[C@@H](C(=O)N2CCCC2)N(C)C(=O)[C@H](C2CCCCC2)N(C)C(=O)C2(CCCC2)NC(=O)[C@@H]2CCCN2C(=O)[C@H](CCc2ccc(Cl)cc2)NC(=O)CN(C)C(=O)[C@H](CC2CCCCC2)N(C)C(=O)CN(C)C(=O)CN(C)C1=O [Compound 1968] ([NMeL]I[Sar][Sar][NMeCha][Sar][hPhe(4-Cl)]P[Ac5c][NMeChg][NMeD]-Pyrrolidide; lactam N-11)
pIC50 [1]: 7.00 to 7.30 | pIC50 [2]: 8.92

CC[C@H](C)[C@@H]1NC(=O)[C@H](CC(C)C)N(C)C(=O)C[C@@H](C(=O)N2CCCC2)N(C)C(=O)[C@H](C2CCCCC2)N(C)C(=O)C2(CCCC2)NC(=O)[C@@H]2CCCN2C(=O)[C@H](CCc2ccc(C(F)(F)F)c(Cl)c2)NC(=O)CN(C)C(=O)[C@H](CC2CCCC2)N(C)C(=O)CN(C)C(=O)CN(C)C1=O [Compound 1969] ([NMeL]I[Sar][Sar][NMeAla(cPent)][Sar][hPhe(3-Cl-4-CF3)]P[Ac5c][NMeChg][NMeD]-Pyrrolidide; lactam N-11)
pIC50 [1]: 7.00 to 7.30 | pIC50 [2]: 9.21

CCCOC[C@H]1C(=O)N(C)CC(=O)N[C@@H](CCc2ccc(C(F)(F)F)c(Cl)c2)C(=O)N2CCC[C@H]2C(=O)NC2(CCCC2)C(=O)N(C)[C@@H](C2CCCCC2)C(=O)N(C)[C@H](C(=O)N2C3CCC2COC3)CC(=O)N(C)[C@@H](CCC)C(=O)N[C@@H]([C@@H](C)CC)C(=O)N(C)CC(=O)N(C)CC(=O)N1C [Compound 1971] ([NMeNva]I[Sar][Sar][NMeS](Propyl)[Sar][hPhe(3-Cl-4-CF3)]P[Ac5c][NMeChg][NMeD]-{3Oxa8azabicyclo(3.2.1)octane}; lactam N-11)
pIC50 [1]: 6.30 to 7.00 | pIC50 [2]: 8.96

CCC[C@H]1C(=O)N[C@@H]([C@@H](C)CC)C(=O)N(C)CC(=O)N(C)CC(=O)N(C)[C@@H](Cc2ccc(C(F)(F)F)cc2)C(=O)N(C)CC(=O)N[C@@H](CCc2ccc(C(F)(F)F)c(Cl)c2)C(=O)N2CCC[C@H]2C(=O)NC2(CCCC2)C(=O)N(C)[C@@H](C2CCCCC2)C(=O)N(C)[C@H](C(=O)N2CCOCC2)CC(=O)N1C [Compound 1972] ([NMeNva]I[Sar][Sar][NMePhe(4-CF3)][Sar][hPhe(3-Cl-4-CF3)]P[Ac5c][NMeChg][NMeD]-Morpholide; lactam N-11)
pIC50 [1]: 7.30 to 7.70 | pIC50 [2]: 9.43

CCC[C@H]1C(=O)N[C@@H]([C@@H](C)CC)C(=O)N(C)CC(=O)N(C)CC(=O)N(C)[C@@H](CC2CCCC2)C(=O)N(C)CC(=O)N[C@@H](CCc2ccc(C(F)(F)F)c(Cl)c2)C(=O)N2CCC[C@H]2C(=O)NC2(CCCC2)C(=O)N(C)[C@@H](C2CCCCC2)C(=O)N(C)[C@H](C(=O)N2CCCC2)CC(=O)N1C [Compound 1975] ([NMeNva]I[Sar][Sar][NMeAla(cPent)][Sar][hPhe(3-Cl-4-CF3)]P[Ac5c][NMeChg][NMeD]-Pyrrolidide; lactam N-11)
pIC50 [1]: 7.00 to 7.30 | pIC50 [2]: 9.29

CC[C@H](C)[C@@H]1NC(=O)[C@H](CC(C)C)N(C)C(=O)C[C@@H](C(=O)N2C3CCC2COC3)N(C)C(=O)[C@H](C2CCCCC2)N(C)C(=O)C2(CCCC2)NC(=O)[C@@H]2CCCN2C(=O)[C@H](CCc2ccc(C(F)(F)F)c(Cl)c2)NC(=O)CN(C)C(=O)[C@H](CC2CCCC2)N(C)C(=O)CN(C)C(=O)CN(C)C1=O [Compound 1976] ([NMeL]I[Sar][Sar][NMeAla(cPent)][Sar][hPhe(3-Cl-4-CF3)]P[Ac5c][NMeChg][NMeD]-{3Oxa8azabicyclo(3.2.1)octane}; lactam N-11)
pIC50 [1]: 6.30 to 7.00 | pIC50 [2]: 8.82

CC[C@H](C)[C@@H]1NC(=O)[C@H](CC(C)C)N(C)C(=O)C[C@@H](C(=O)N2CCCC2)N(C)C(=O)[C@H](C2CCCCC2)N(C)C(=O)C2(CCCC2)NC(=O)[C@@H]2CCCN2C(=O)[C@H](CCc2ccc(C(F)(F)F)c(Cl)c2)NC(=O)CN(C)C(=O)[C@H](Cc2ccc(C(F)(F)F)cc2)N(C)C(=O)CN(C)C(=O)CN(C)C1=O [Compound 1978] ([NMeL]I[Sar][Sar][NMePhe(4-CF3)][Sar][hPhe(3-Cl-4-CF3)]P[Ac5c][NMeChg][NMeD]-Pyrrolidide; lactam N-11)
pIC50 [1]: 7.30 to 7.70 | pIC50 [2]: 9.29

CC[C@H](C)[C@@H]1NC(=O)[C@H](CC(C)C)N(C)C(=O)C[C@@H](C(=O)N(C)C)N(C)C(=O)[C@H]([C@@H](C)CC)N(C)C(=O)C2(CCCC2)NC(=O)[C@H](CC(=O)N2CCC(F)(F)CC2)N(C)C(=O)[C@H](CCc2ccc(C(F)(F)F)c(Cl)c2)NC(=O)CN(C)C(=O)[C@H](Cc2ccc(C)cc2)N(C)C(=O)[C@@H]2CCN2C(=O)[C@H](C)N(C)C1=O [Compound 1980] ([NMeL]I[NMeA][Aze][NMePhe(4-Me)][Sar][hPhe(3-Cl-4-CF3)][NMeD](N(CH2CH2)2CF2)[Ac5c][NMeI][NMeD]-NMe2; lactam N-11)
pIC50 [1]: 6.30 to 7.00 | pIC50 [2]: 8.82

CCC[C@H]1C(=O)N[C@@H]([C@@H](C)CC)C(=O)N(C)CC(=O)N(C)CC(=O)N(C)[C@@H](Cc2ccc(C(F)(F)F)cc2)C(=O)N(C)CC(=O)N[C@@H](CCc2ccc(C(F)(F)F)c(Cl)c2)C(=O)N2CCC[C@H]2C(=O)NC2(CCCC2)C(=O)N(C)[C@@H](C2CCCCC2)C(=O)N(C)[C@H](C(=O)N2C3CCC2COC3)CC(=O)N1C [Compound 1983] ([NMeNva]I[Sar][Sar][NMePhe(4-CF3)][Sar][hPhe(3-Cl-4-CF3)]P[Ac5c][NMeChg][NMeD]-{3Oxa8azabicyclo(3.2.1)octane}; lactam N-11)
pIC50 [1]: 7.30 to 7.70 | pIC50 [2]: 9.17

CCC[C@H]1C(=O)N[C@@H]([C@@H](C)CC)C(=O)N(C)CC(=O)N(C)CC(=O)N(C)[C@@H](Cc2ccc(C(F)(F)F)cc2)C(=O)N(C)CC(=O)N[C@@H](CCc2ccc(C(F)(F)F)c(Cl)c2)C(=O)N2CCC[C@H]2C(=O)NC2(CCCC2)C(=O)N(C)[C@@H](C2CCCCC2)C(=O)N(C)[C@H](C(=O)N2CCCC2)CC(=O)N1C [Compound 1984] ([NMeNva]I[Sar][Sar][NMePhe(4-CF3)][Sar][hPhe(3-Cl-4-CF3)]P[Ac5c][NMeChg][NMeD]-Pyrrolidide; lactam N-11)
pIC50 [1]: 7.30 to 7.70 | pIC50 [2]: 9.42
